Experimental data reported in US20240173330A1, “USE OF ATR INHIBITORS IN COMBINATION WITH PARP INHIBITORS FOR TREATING CANCER” (Repare Therapeutics Inc., priority 2021, published 2024).

Key:
Format in all cases: cell-based
[1] = test system: tumor cells that employ the Alternative Lengthening of Telomeres (ALT) mechanism; experiment: Combination against ALT tumor cells; conditions: combination of ATR inhibitor with PARP inhibitor
Excerpt: In addition to tumors carrying the above-mentioned genetic alterations, the combination of ATR inhibitors (e.g., Compound 121) with PARP inhibitors (e.g., 5-[4-[(7-ethyl-6-oxo-5H-1,5-naphthyridin-3-yl)methyl]piperazin-1-yl]-N-methyl-pyridine-2-carboxamide) may be effective against tumor cells that employ the Alternative Lengthening of Telomeres (ALT) mechanism.

[2] = test system: RNASEH2B+/+ and RNASEH2B−/− cells; experiment: Synergy between ATR inhibitor and PARP inhibitor in RNASEH2B+/+ and RNASEH2B−/− cells; conditions: combination of ATR inhibitor and PARP inhibitor
Excerpt: An ATR inhibitor (e.g., compound 121) may synergize with a PARP inhibitor (e.g., 5-[4-[(7-ethyl-6-oxo-5H-1,5-naphthyridin-3-yl)methyl]piperazin-1-yl]-N-methyl-pyridine-2-carboxamide) in RNASEH2B+/+ and RNASEH2B−/− cells. Importantly, in RNASEH2B−/− cells, synergy (e.g., maximum synergy) may be achieved at lower concentrations of an ATR inhibitor (e.g., compound 121) and lower concentrations of the PARP inhibitor (e.g., 5-[4-[(7-ethyl-6-oxo-5H-1,5-naphthyridin-3-yl)methyl]piperazin-1-yl]-N-methyl-pyridine-2-carboxamide) than in RNASEH2B+/+ cells. As a result, the apparent IC50 of the PARP inhibitor may shift in the presence of the ATR inhibitor (e.g., compound 121).
In addition to selecting a sensitized genetic background, tolerability of the combination treatment with an ATR inhibitor and PARP inhibitor can be improved by optimizing dosing schedules (Fang et al., Cancer Cell, 35:851-867, 2019). To guide the combined dosing of the ATR inhibitor (e.g., compound 121) and the PARP inhibitor (e.g., 5-[4-[(7-ethyl-6-oxo-5H-1,5-naphthyridin-3-yl)methyl]piperazin-1-yl]-N-methyl-pyridine-2-carboxamide) in RNASEH2B-deficient tumor cells, a continuous longer (e.g., 168 h) concomitant treatment of RNASEH2B+/+ and −/− cells with both compounds may be compared to a shorter (e.g., either a 48 or 72 h) treatment followed by removal of compounds and growth in drug-free media. […]

[3] = test system: isogenic cell lines lacking CDK12 or BRCA2; experiment: 48-hr combination treatment of isogenic cell lines lacking CDK12 or BRCA2; conditions: 48-hr treatment with combination
Excerpt: The optimized dosing schedule may be applicable to cells carrying mutations not only in RNASEH2B, but additional genes.

Compound: CCc1cc2ncc(CN3CCN(c4ccc(C(=O)NC)nc4)CC3)cc2[nH]c1=O [5-[4-[(7-ethyl-6-oxo-5H-1,5-naphthyridin-3-yl)methyl]piperazin-1-yl]-N-methyl-pyridine-2-carboxamide]
- effectiveness of combination against ALT tumor cells [1]: effective
- synergy of ATR inhibitor with PARP inhibitor [2]: synergize
- synergistic sensitization [3]: synergistically sensitize

Compound: C[C@@H]1COCCN1c1cc([C@@]2(O)C[C@H]3CC[C@@H](C2)O3)c2cnn(-c3cc[nH]n3)c2n1 [compound 121]
- effectiveness of combination against ALT tumor cells [1]: effective
- synergy of ATR inhibitor with PARP inhibitor [2]: synergize
- synergistic sensitization [3]: synergistically sensitize
